Measured values: US20070191336A1 (priority 2003, published 2007)

target: T1, phospho p-38 alpha kinase (Homo sapiens, UniProt Q16539); assay: P-38 alpha kinase assay (spectrophotometric, pyruvate kinase/lactate dehydrogenase coupled); assay type: biochemical; conditions: Table 3; rates from […] to 2 h time frame
T1 construct: purchased Panvera
T1 sequence (Q16539 whole entry): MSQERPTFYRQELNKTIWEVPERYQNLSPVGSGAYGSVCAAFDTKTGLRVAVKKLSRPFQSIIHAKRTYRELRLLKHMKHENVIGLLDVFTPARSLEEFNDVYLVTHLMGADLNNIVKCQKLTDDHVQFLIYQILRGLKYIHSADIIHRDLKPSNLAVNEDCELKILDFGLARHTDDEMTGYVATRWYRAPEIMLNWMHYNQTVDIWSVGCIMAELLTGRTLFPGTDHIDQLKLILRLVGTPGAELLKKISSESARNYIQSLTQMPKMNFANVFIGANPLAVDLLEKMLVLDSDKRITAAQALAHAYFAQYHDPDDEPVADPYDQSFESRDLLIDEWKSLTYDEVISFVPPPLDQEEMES

Row | SMILES | IC50
1 | CC(C)(C)c1cc(NC(=O)Nc2ccc3c(c2)OCO3)n(-c2cccc(CN)c2)n1 [Example 391, 1-{1-[3-(aminomethyl)phenyl]-3-t-butyl-1H-pyrazol-5-yl}-3-(benzo-[d][1,3]dioxol-5-yl)urea] | 910 nM
2 | CC(C)(C)c1cc(NC(=O)Nc2cccc(Cl)c2Cl)n(-c2ccc3c(c2)CNCC3)n1 [Example 508, 1-[3-t-butyl-(1,2,3,4-tetrahydroisoquinolin-7-yl)-1H-pyrazol-5-yl]-3-(2,3-dichlorophenyl)urea] | 52 nM
3 | CC(C)(C)c1cc(NC(=O)Nc2cccc(F)c2F)n(-c2cccc(C#N)c2)n1 [Example 355, 1-[3-t-butyl-1-(3-cyan-phenyl)-1H-pyrazol-5-yl]-3-(2,3-difluorophenyl)urea] | 42 nM
4 | CC(C)(C)c1cc(NC(=O)Nc2cccc(Cl)c2)n(-c2cccc(C#N)c2)n1 [Example 385, 1-(3-t-butyl-1-(3-cyanophenyl)-1H-pyrazol-5-yl)-3-(3-chlorophenyl)urea] | 30 nM
5 | CC(C)(C)c1cc(NC(=O)Nc2cccc(Cl)c2Cl)n(-c2cccc(C#N)c2)n1 [Example 359] | 13 nM
6 | COc1cccc(NC(=O)Nc2cc(C(C)(C)C)nn2-c2cccc(C#N)c2)c1 [Example 360] | 390 nM
7 | O=C(Nc1cccc(C(F)(F)F)c1)Nc1cc(-c2ccccc2)nn1-c1cccc(CO)c1 [Example 457, 1-{3-phenyl-1-[3-(hydroxymethyl)phenyl]-1H-pyrazol-5-yl}-3-(3-trifluoromethylphenyl)urea] | 1100 nM
8 | COc1cccc(-n2nc(C(C)(C)C)cc2NC(=O)Nc2ccc(Cl)cc2Cl)c1 [Example 318, 1-(3-t-butyl-1-(3-methoxyphenyl)-1H-pyrazol-5-yl)-3-(2,4-dichlorophenyl)urea] | 670 nM
9 | COc1cccc(-n2nc(C(C)(C)C)cc2NC(=O)Nc2ccc([N+](=O)[O-])cc2)c1 [Example 321, 1-(3-t-butyl-1-(3-methoxyphenyl)-1H-pyrazol-5-yl)-3-(4-nitrophenyl)urea] | 520 nM
10 | CC(C)(C)c1cc(NC(=O)Nc2cccc(C(F)(F)F)c2)n(-c2cccc(C#N)c2)n1 [Example 361] | 870 nM
11 | CC(C)(C)c1cc(NC(=O)Nc2ccc3c(c2)OCO3)n(-c2cccc(C#N)c2)n1 [Example 357, 1-(benzo[d][1,3]dioxol-5-yl)-3-(3-t-butyl-1-(3-cyanophenyl)-1H-pyrazol-5-yl)urea] | 130 nM
12 | CCOC(=O)Cc1ccc(-n2nc(C(C)(C)C)cc2NC(=O)Nc2ccc(Cl)cc2)cc1 [Example 420, ethyl 2-(4-{3-t-butyl-5-[3-(4-chlorophenyl)ureido]-1H-pyrazol-1-yl}phenyl)acetate] | 14.7 nM
13 | CC(C)(C)c1cc(NC(=O)Nc2ccc(Cl)cc2)n(-c2cccc(C(O)C(F)(F)F)c2)n1 (stereo not drawn) [Example 516, 1-(3-t-butyl-1-(3-(2,2,2-trifluoro-1-hydroxyethyl)phenyl)-1H-pyrazol-5-yl)-3-(4-chlorophenyl)urea] | 450 nM
14 | Cc1cc(NC(=O)Nc2cccc3ccccc23)n(-c2cccc(C(C)(C)O)c2)n1 [Example 444, 1-{1-[3-(2-hydroxypropan-2-yl)phenyl]-3-methyl-1H-pyrazol-5-yl}-3-(naphthalen-1-yl)urea] | 5000 nM
15 | COc1cccc(-n2nc(C(C)(C)C)cc2NC(=O)Nc2cccc(F)c2F)c1 [Example 345, 1-[3-t-butyl-1-(3-methoxy-phenyl)-1H-pyrazol-5-yl]-3-(2,3-difluorophenyl)urea] | 270 nM
16 | COc1cccc(-n2nc(C(C)(C)C)cc2NC(=O)Nc2ccc(Cl)c(Cl)c2)c1 [Example 317, 1-(3-t-butyl-1-(3-methoxyphenyl)-1H-pyrazol-5-yl)-3-(3,4-dichlorophenyl)urea] | 68 nM
17 | COc1cccc(-n2nc(C(C)(C)C)cc2NC(=O)Nc2ccc(C(F)(F)F)cc2)c1 [Example 314, 1-(3-t-butyl-1-(3-methoxyphenyl)-1H-pyrazol-5-yl)-3-(4-(trifluoromethyl)phenyl)urea] | 250 nM
18 | CC(C)c1cc(NC(=O)Nc2ccc(Cl)cc2)n(-c2ccc(CO)cc2)n1 [Example 438, 1-(4-chlorophenyl)-3-{1-[4-(hydroxymethyl)phenyl]-3-isopropyl-1H-pyrazol-5-yl}-urea] | 1300 nM
19 | CC(C)(C)C1=NC(c2ccc(CC(=O)O)cc2)C(NC(=O)Nc2ccc(Cl)cc2)=C1 (stereo not drawn) [Example 506, 2-(4-{5-t-butyl-3-[3-(4-chlorophenyl)ureido]-2H-pyrrol-2-yl}-phenyl)acetic acid] | 42 nM
20 | CC(C)(C)c1cc(NC(=O)Nc2cccc(Br)c2)n(-c2cccc(C#N)c2)n1 [Example 356, 1-(3-t-butyl-1-(3-cyanophenyl)-1H-pyrazol-5-yl)-3-(3-bromophenyl)urea] | 59 nM
21 | CC(Cc1ccc(-n2nc(C(C)(C)C)cc2NC(=O)Nc2ccc(Cl)cc2)cc1)C(=O)O (stereo not drawn) [Example 430, 3-(4-{3-t-butyl-5-[3-(4-chlorophenyl)ureido]-1H-pyrazol-1-yl}phenyl)-2-methylpropanoic acid] | 942 nM
22 | CN(C)C(=O)NCc1cccc(-n2nc(C(C)(C)C)cc2NC(=O)Nc2cccc3ccccc23)c1 [Example 487, 1-{3-t-butyl-1-[3-(3,3-dimethylureidomethyl)phenyl]-1H-pyrazol-5-yl}-3-(naphthalen-1-yl)urea] | 38 nM
23 | C#CC(O)c1cccc(-n2nc(C(C)(C)C)cc2NC(=O)Nc2cccc3ccccc23)c1 (stereo not drawn) [Example 473, 1-{3-t-butyl-1-[3-(1-hydroxyprop-2-ynyl)phenyl]-1H-pyrazol-5-yl}-3-(naphthalen-1-yl)urea] | 4 nM
24 | CC(C)(C)c1cc(NC(=O)Nc2cccc(Cl)c2)n(-c2cccc(CCN)c2)n1 [Example 378, 1-{1-[3-(2-aminoethyl)phenyl]-3-t-butyl-1H-pyrazol-5-yl}-3-(3-chlorophenyl)urea] | 400 nM
25 | CC(C)(C)c1cc(NC(=O)Nc2cccc(Br)c2)n(-c2cccc(CCN)c2)n1 [Example 376, 1-{1-[3-(2-aminoethyl)phenyl]-3-t-butyl-1H-pyrazol-5-yl}-3-(3-bromophenyl)urea] | 480 nM
26 | CC(C)(C)c1cc(NC(=O)Nc2ccc(Cl)cc2)n(-c2cccc(C#N)c2)n1 [Example 358, 1-(3-t-butyl-1-(3-cyanophenyl)-1H-pyrazol-5-yl)-3-(4-chlorophenyl)urea] | 100 nM

same assay, conditions: read-out: % Inhibition @ concentration, Table 3; at 0.1 uM

Row | SMILES | inhibition at 0.1 µM
27 | COc1ccc(-n2nc(C(C)(C)C)cc2NC(=O)Nc2cccc(F)c2F)cc1 [Example 415, 1-[3-t-butyl-1-(4-methoxyphenyl)-1H-pyrazol-5-yl]-3-(2,3-difluorophenyl)urea] | 28%
28 | CC(C)c1cc(NC(=O)Nc2cccc3ccccc23)n(-c2cccc(C(C)(C)O)c2)n1 [Example 436, 1-{1-[3-(2-hydroxypropan-2-yl)phenyl]-3-isopropyl-1H-pyrazol-5-yl}-3-(naphthalen-1-yl)urea] | 16%
29 | COc1ccc(-n2nc(C(C)(C)C)cc2NC(=O)Nc2cccc(OC)c2)cc1 [Example 348, 1-[3-t-butyl-1-(4-methoxyphenyl)-1H-pyrazol-5-yl]-3-(3-methoxy-phenyl)urea] | 17%
30 | CC(C)(C)c1cc(NC(=O)Nc2cccc(Cl)c2Cl)n(-c2cccc(Cn3c(=O)[nH]n(-c4ccccc4)c3=O)c2)n1 [Example 499, 1-(3-t-butyl-1-{3-[(3,5-dioxo-1-phenyl-1,2,4-triazolidin-4-yl)methyl]phenyl}-1H-pyrazol-5-yl)-3-(2,3-dichlorophenyl)urea] | 78%

same assay, conditions: read-out: % Inhibition @ concentration, Table 3; at 1 uM

Row | SMILES | inhibition at 1 µM
31 | CN1CCN(C(=O)NCc2cccc(-n3nc(C(C)(C)C)cc3NC(=O)Nc3ccc(Cl)cc3)c2)CC1 [Example 493, 1-(3-t-butyl-1-{3-[(1-methylpiperazine-4-carboxamido)methyl]phenyl}-1H-pyrazol-5-yl)-3-(4-chlorophenyl)urea] | 36%
32 | CC(C)(C)c1cc(NC(=O)Nc2ccc(F)cc2)n(-c2cccc(Cn3c(=O)[nH]n(-c4ccccc4)c3=O)c2)n1 [Example 498, 1-(3-t-butyl-1-{3-[(3,5-dioxo-1-phenyl-1,2,4-triazolidin-4-yl)methyl]phenyl}-1H-pyrazol-5-yl)-3-(4-fluorophenyl)urea] | 25%
33 | Cc1cc(NC(=O)Nc2cccc3ccccc23)n(-c2ccc(C(O)C(F)(F)F)cc2)n1 (stereo not drawn) [Example 451, 1-{3-methyl-1-[4-(2,2,2-trifluoro-1-hydroxyethyl)phenyl]-1H-pyrazol-5-yl}-3-(naphthalen-1-yl)urea] | 3%
34 | COc1ccc(-n2nc(C(C)(C)C)cc2NC(=O)Nc2cccc(F)c2F)cc1 [Example 415, 1-[3-t-butyl-1-(4-methoxyphenyl)-1H-pyrazol-5-yl]-3-(2,3-difluorophenyl)urea] | 69%
35 | CC(C)c1cc(NC(=O)Nc2cccc3ccccc23)n(-c2cccc(C(C)(C)O)c2)n1 [Example 436, 1-{1-[3-(2-hydroxypropan-2-yl)phenyl]-3-isopropyl-1H-pyrazol-5-yl}-3-(naphthalen-1-yl)urea] | 41%
36 | COc1ccc(-n2nc(C(C)(C)C)cc2NC(=O)Nc2cccc(OC)c2)cc1 [Example 348, 1-[3-t-butyl-1-(4-methoxyphenyl)-1H-pyrazol-5-yl]-3-(3-methoxy-phenyl)urea] | 47%
37 | CC(C)(O)c1cccc(-n2nc(-c3ccccc3)cc2NC(=O)Nc2cccc3ccccc23)c1 [Example 432, 1-{1-[3-(2-hydroxypropan-2-yl)phenyl]-3-phenyl-1H-pyrazol-5-yl}-3-(naphthalen-1-yl)urea] | 9%
38 | CC(C)(C)c1cc(NC(=O)Nc2cccc(Cl)c2Cl)n(-c2cccc(Cn3c(=O)[nH]n(-c4ccccc4)c3=O)c2)n1 [Example 499, 1-(3-t-butyl-1-{3-[(3,5-dioxo-1-phenyl-1,2,4-triazolidin-4-yl)methyl]phenyl}-1H-pyrazol-5-yl)-3-(2,3-dichlorophenyl)urea] | 95%

same assay, conditions: read-out: % Inhibition @ concentration, Table 3; at 10 uM

Row | SMILES | inhibition at 10 µM
39 | CN1CCN(C(=O)NCc2cccc(-n3nc(C(C)(C)C)cc3NC(=O)Nc3ccc(Cl)cc3)c2)CC1 [Example 493, 1-(3-t-butyl-1-{3-[(1-methylpiperazine-4-carboxamido)methyl]phenyl}-1H-pyrazol-5-yl)-3-(4-chlorophenyl)urea] | 73%
40 | CCOC(=O)CCc1cccc(-n2nc(C(F)(F)F)cc2NC(=O)Nc2ccc(Cl)cc2)c1 [Example 529, 3-(3-{5-[3-(4-chloro-phenyl)-ureido]-3-trifluoromethyl-pyrazol-1-yl}-phenyl)-propionic acid ethyl ester] | 40%
41 | CC(C)(C)c1cc(NC(=O)Nc2cccc3cccnc23)n(-c2cccc(CCC(=O)O)c2)n1 [Example 367, 3-(3-{3-t-butyl-5-[3-(quinolin-8-yl)ureido]-1H-pyrazol-1-yl}phenyl)-propionic acid] | 85%
42 | CCOC(=O)CCc1cccc(-n2nc(C(C)(C)C)cc2NC(=O)c2ccc3ccccc3c2)c1 [Example 154, 3-(3-{3-t-butyl-5-[(naphthalene-2-carbonyl)-amino]-pyrazol-1-yl}-phenyl)-propionic acid ethyl ester] | 21%
43 | COc1cccc(-n2nc(-c3ccccc3)cc2NC(=O)Nc2cccc(Cl)c2)c1 [Example 331] | 71%
44 | CC(C)(O)c1cccc(-n2nc(-c3ccccc3)cc2NC(=O)Nc2cccc3ccccc23)c1 [Example 432, 1-{1-[3-(2-hydroxypropan-2-yl)phenyl]-3-phenyl-1H-pyrazol-5-yl}-3-(naphthalen-1-yl)urea] | 24%

same assay, conditions: read-out: % inhibition @ concentration, Table 2; at 10 uM

Row | SMILES | inhibition at 10 µM
45 | CC1(C(=O)NCc2cccc(-n3nc(C(C)(C)C)cc3NC(=O)Nc3ccc(Cl)cc3)c2)CC2(C)CC(C)(C1)C(=O)NC2=O (stereo not drawn) [Example 10, 1,5,7-trimethyl-2,4-dioxo-3-aza-bicyclo[3.3.1]nonane-7-carboxylic acid 3-{3-t-butyl-5-[3-(4-chloro-phenyl)-ureido]-pyrazol-1-yl}benzylamide] | 83%
